Experimental data: paper PMC9436819 (JACC: Basic to Translational Science, 2022)
Entries after “also recorded” stand apart in the source; their conditions may differ. Like-named read-outs stand apart in the source and are kept apart here. Marks after values point to notes of the source that are not given here.

Columns and labels:
[1] = system: healthy adults; test: Treatment-emergent adverse events, single ascending dose (SAD) cohorts; assay type: in vivo, human
Procedure: (§1) The SAD portion of the study used a randomized, double-blind, placebo-controlled, sequential, escalating dose design, in which participants received single ascending oral doses of the study drug. Seven cohorts were dosed in sequence (Figure 1). […] Safety was assessed by the incidence of adverse events (AEs) and by the incidence of reduced LVEF. Treatment-emergent AEs (TEAEs) were defined as AEs that began or increased after study drug administration. All AEs were coded using the Medical Dictionary for Regulatory Activities, version 21.1, and graded using the National Cancer Institute Common Terminology Criteria for AEs (version 4.03) 5-point severity scale.[18] Each AE was judged as either related or unrelated to the study drug by the treating investigator. Clinical laboratory tests were obtained at regular intervals in all cohorts.

[2] = Plasma pharmacokinetics after multiple oral doses (MAD cohorts); assay type: in vivo, human; details: for AUC / Cmax / Tmax / half-life: human, plasma, oral; for AUC / Cmax: geometric mean (geometric CV%); for Tmax: median (range)
Source text: The MAD cohorts also used a randomized, double-blind, placebo-controlled, sequential design. […] For all study groups, blood samples for PK assessment were obtained predose, up to 12 times daily on day 1, and then at regular intervals throughout the study (see Supplemental Appendix for details). Standard noncompartmental methods were used to calculate PK parameters using Phoenix WinNonlin, version 7.0; actual sample collection times were used. […] Steady-state analysis In the M AD cohort, a steady- state an alysis for […] erfo rmed o n the ln-transformed plasma trough concentrat ion (Ctrough) values using Helmert contrasts. An analysis of variance (ANOVA) model was co nducted separately fo r each dose level; day w as in cluded as the fix ed effect. Helmert contrasts were d eveloped su ch that each time- point was compared with the mean of the subsequent time-points. Steady state was established at the time-point where no statistical differen ce (alpha = 5%, 2 -sided) was obs […] the subsequent time-points. 5

[3] = system: rat and dog; details: cited from earlier work
[4] = Plasma pharmacokinetics in the food-effect cohort; assay type: in vivo, human; details: single 10 mg; for CL/F / Vd/F / half-life: arithmetic mean ± SD; for Vd/F: read-out: Vz/F; for half-life: read-out: t½ (converted); for AUC(0-inf) / Cmax / AUC: geometric mean (geometric CV%); for AUC: read-out: AUC24
Source text: Participants were randomized in a 1:1 ratio to 1 of 2 sequences: fasted/fed or fed/fasted. […] For all study groups, blood samples for PK assessment were obtained predose, up to 12 times daily on day 1, and then at regular intervals throughout the study (see Supplemental Appendix for details). Standard noncompartmental methods were used to calculate PK parameters using Phoenix WinNonlin, version 7.0; actual sample collection times were used.

[5] = system: healthy adults; test: Treatment-emergent adverse events, multiple ascending dose (MAD) cohorts; assay type: in vivo, human; details: n = 6
Procedure: as §1, with “MAD cohorts also” for “SAD portion of the study”, “sequential design.” for “sequential, escalating dose design, in which participants received single ascending oral doses of the study drug. Seven cohorts were dosed in sequence (Figure 1).”

[6] = human, plasma, oral, 10 mg, Fasted, n = 4
[7] = human, plasma, oral, 10 mg, Fasted, n = 10
[8] = human, plasma, oral, 10 mg, Fed, n = 7

Day by the end of which steady state was achieved ([2]; 5-mg dose once daily): 12 days
Day by the end of which steady state was achieved ([2]; 7.5-mg dose once daily): 12 days
Day by the end of which steady state was achieved ([2]; 10-mg dose once daily): 10 days
AUC ([2]; 5 mg, Day 1, 5 mg qd × 14 d, n = 6, read-out: AUC24): 278 ng·h/mL
Cmax ([2]; 5 mg, Day 1, 5 mg qd × 14 d, n = 6, read-out: Cmax): 28 ng/mL
Tmax ([2]; 5 mg, Day 1, 5 mg qd × 14 d, n = 6, read-out: Tmax): 1.3 h
half-life ([2]; 5 mg, Day 14, 5 mg qd × 14 d, arithmetic mean ± SD, n = 6, read-out: t½ (converted)): 86.4 ± 11.9 h
AUC ([2]; 5 mg, Day 14, 5 mg qd × 14 d, n = 6, read-out: AUCtau): 1320 ng·h/mL
Cmax ([2]; 5 mg, Day 14, 5 mg qd × 14 d, n = 6, read-out: Cmax,ss): 69 ng/mL
Tmax ([2]; 5 mg, Day 14, 5 mg qd × 14 d, n = 6, read-out: Tmax,ss): 2.8 h
AUC ([2]; 7.5 mg, Day 1, 7.5 mg qd × 17 d, n = 6, read-out: AUC24): 551 ng·h/mL
Cmax ([2]; 7.5 mg, Day 1, 7.5 mg qd × 17 d, n = 6, read-out: Cmax): 69.3 ng/mL
Tmax ([2]; 7.5 mg, Day 1, 7.5 mg qd × 17 d, n = 6, read-out: Tmax): 0.8 h
half-life ([2]; 7.5 mg, Day 17, 7.5 mg qd × 17 d, arithmetic mean ± SD, n = 6, read-out: t½ (converted)): 76.9 ± 14.5 h
AUC ([2]; 7.5 mg, Day 17, 7.5 mg qd × 17 d, n = 6, read-out: AUCtau): 2520 ng·h/mL
Cmax ([2]; 7.5 mg, Day 17, 7.5 mg qd × 17 d, n = 6, read-out: Cmax,ss): 148 ng/mL
Tmax ([2]; 7.5 mg, Day 17, 7.5 mg qd × 17 d, n = 6, read-out: Tmax,ss): 1 h
half-life ([2]; 10 mg, 5, 7.5, 10 mg once daily, read-out: Terminal elimination half-life, range across multiple-dose cohorts): 77 to 86 h
AUC ([2]; 10 mg, Day 1, 10 mg qd × 14 d, n = 6, read-out: AUC24): 547 ng·h/mL
Cmax ([2]; 10 mg, Day 1, 10 mg qd × 14 d, n = 6, read-out: Cmax): 54.4 ng/mL
Tmax ([2]; 10 mg, Day 1, 10 mg qd × 14 d, n = 6, read-out: Tmax): 1 h
half-life ([2]; 10 mg, Day 14, 10 mg qd × 14 d, arithmetic mean ± SD, n = 6, read-out: t½ (converted)): 79.8 ± 14.1 h
AUC ([2]; 10 mg, Day 14, 10 mg qd × 14 d, n = 6, read-out: AUCtau): 2630 ng·h/mL
Cmax ([2]; 10 mg, Day 14, 10 mg qd × 14 d, n = 6, read-out: Cmax,ss): 141 ng/mL
Tmax ([2]; 10 mg, Day 14, 10 mg qd × 14 d, n = 6, read-out: Tmax,ss): 2.5 h
Attainment of steady state ([2]; once-daily dosing): ≤ 2 weeks
CL/F ([4]; Fasted, n = 4): 2.8 ± 0.6 L/h
CL/F ([4]; Fed, n = 7): 3.1 ± 0.9 L/h
Vd/F [4, 6]: 346 ± 134 L
half-life [4, 6]: 84.4 ± 16.4 h
AUC(0-inf) [4, 6]: 3670 ng·h/mL
Cmax [4, 7]: 50.6 ng/mL
AUC [4, 7]: 601 ng·h/mL
Tmax ([4]; human, plasma, oral, 10 mg, Fasted, median (range), n = 10): 2.3 h
Cmax ([4]; human, plasma, oral, 10 mg, Fed (high-fat breakfast), n = 12): 65 ng/mL
Vd/F [4, 8]: 340 ± 100 L
half-life [4, 8]: 78 ± 8.1 h
AUC(0-inf) [4, 8]: 3410 ng·h/mL
AUC ([4]; human, plasma, oral, 10 mg, Fed, n = 12): 631 ng·h/mL
Increase of Cmax when taken with food ([4]; fed vs fasted): approximately 30%
Structure (SMILES): CCc1nc(-c2ccc3c(c2)CC[C@H]3NC(=O)c2cnn(C)c2)no1 [Aficamten]
Participants with any TEAE ([1]; SAD 1 mg, n = 6): 1 (17) n (%)
Participants with any TEAE ([1]; SAD 10 mg, n = 6): 1 (17) n (%)
TEAE: Headache ([1]; SAD 10 mg, n = 6): 1 (17) n (%)
Participants with any TEAE ([1]; SAD 25 mg, n = 6): 5 (83) n (%)
TEAE: Abdominal tenderness ([1]; SAD 25 mg, n = 6): 1 (17) n (%)
TEAE: Dyspepsia ([1]; SAD 25 mg, n = 6): 1 (17) n (%)
TEAE: Flatulence ([1]; SAD 25 mg, n = 6): 1 (17) n (%)
TEAE: Headache ([1]; SAD 25 mg, n = 6): 2 (33) n (%)
TEAE: Nausea ([1]; SAD 25 mg, n = 6): 2 (33) n (%)
TEAE: Upper abdominal pain ([1]; SAD 25 mg, n = 6): 2 (33) n (%)
Participants with any TEAE ([1]; SAD 40 mg, n = 6): 1 (17) n (%)
TEAE: Ejection fraction decreased ([1]; SAD 40 mg, n = 6): 1 (17) n (%)
Participants with any TEAE ([1]; SAD 50 mg, n = 11): 4 (36) n (%)
TEAE: Abdominal tenderness ([1]; SAD 50 mg, n = 11): 1 (9) n (%)
TEAE: Dyspepsia ([1]; SAD 50 mg, n = 11): 1 (9) n (%)
TEAE: Ejection fraction decreased ([1]; SAD 50 mg, n = 11): 1 (9) n (%)
TEAE: Flatulence ([1]; SAD 50 mg, n = 11): 1 (9) n (%)
TEAE: Headache ([1]; SAD 50 mg, n = 11): 1 (9) n (%)
TEAE: Chest pain ([1]; SAD 50 mg, n = 11, bubbling sensation to the left chest, consistent with a gastrointestinal rather than cardiac association): 1 (9) ^a n (%)
Participants with any TEAE ([1]; SAD 75 mg, n = 1): 1 (100) n (%)
TEAE: Ejection fraction decreased ([1]; SAD 75 mg, n = 1): 1 (100) n (%)
TEAE: Chest pain ([1]; SAD 75 mg, n = 1, onset approximately 60 hours postdose): 1 (100) ^b n (%)
Exposure-response relationship shallower than that of mavacamten ([3]; comparison in rats and dogs): roughly 3 fold
Ventricular contractility ([3]; rat and dog): reduces ventricular contractility in a dose- and exposure-dependent manner
Effect of food on the PK ([4]; fed vs fasted): not affected; also recorded: no significant effect; also recorded: no effect of food
Participants with any TEAE ([5]; MAD 5 mg qd × 14 d): 1 (17) n (%)
TEAE: Chapped lips ([5]; MAD 5 mg qd × 14 d): 1 (17) n (%)
TEAE: Cough ([5]; MAD 5 mg qd × 14 d): 1 (17) n (%)
TEAE: Salivary hypersecretion ([5]; MAD 5 mg qd × 14 d): 1 (17) n (%)
Participants with any TEAE ([5]; MAD 10 mg qd × 14 d): 2 (33) n (%)
TEAE: Headache ([5]; MAD 10 mg qd × 14 d): 1 (17) n (%)
TEAE: Upper respiratory tract infection ([5]; MAD 10 mg qd × 14 d): 1 (17) n (%)
